Assay results: patent EP4574149A1, “COMPOSITION OF RAPAMYCIN, DIMETHYLSULPHOXIDE AND WATER FOR USE IN THE TREATMENT OF FATTY LIVER DISEASE” (Assistance Publique - Hôpitaux de Paris, priority 2023, dated 2025)

Legend:
hépatocytes = test: Defatting effect of rapamycin on hepatocyte cultures (Example 2); type: cell-based; conditions: rapamycine 200nM, hepatocytes, read-out: diminution du taux de triglycérides intracellulaires par rapport au contrôle
Method: (§1) La rapamycine a été évaluée sur des cultures d'hépatocytes et sur tissus hépatiques (tranches de foies permettant de garder la structure hépatique). Pour une concentration de rapamycine à 200nM, il était observé une diminution de 19% du taux de triglycérides intracellulaires par rapport au contrôle dans les hépatocytes et de 38% dans les tissus hépatiques. Ces résultats répétés plusieurs fois ont permis de confirmer la preuve de concept de l'effet de la rapamycine sur l'effet « dégraissant ».

[1] = Solubility study of rapamycin in DMSO/H2O mixtures; type: physicochemical
Method: Une étude de solubilité a été réalisée sur des mélanges DMSO/H2O, de 40% à 100% (v/v) en DMSO et des concentrations en rapamycine comprises entre 0,4 et 4 mg/mL.
L'évaluation de la solubilisation de rapamycine en fonction de différentes concentrations de DMSO est présentée au Tableau 3 ci-dessous : Tableau 3 : Evaluation de la solubilisation de rapamycine en fonction de différentes concentrations de DMSO.
A la suite de ces résultats, une nouvelle étude a été lancée sur un intervalle plus restreint en DMSO, avec 3 niveaux de concentrations (70%; 85%; 100%) et les 3 mêmes niveaux de rapamycine (0,4; 1; 4 mg/mL) (Tableau 4). Tableau 4 : Evaluation de la solubilisation de rapamycine dans des concentrations de DMSO à 70%, 85% et 100%.

foies humains = test: Perfusion circuit with steatotic human livers: intracellular triglycerides and pharmacokinetics; conditions: for diminution du taux de triglycérides intra cellulaires: steatosis > 50%
Description: De la même manière, l'expérience a été réalisée avec deux foies humains jugés non transplantables et utilisés à visée scientifique après autorisation de l'Agence de Biomédecine. […] L'évaluation de la viabilité de ces deux organes ont été faites selon des critères validés en pratique clinique. […] Pour ce faire, les triglycérides intra cellulaires ont été dosés.

[2] = Perfusion circuit with pig liver: pharmacokinetics of rapamycin; type: in vitro ADME, cochon; conditions: pig liver on perfusion machine
Method: Le même protocole de perfusion a été utilisé mais avec un foie animal. Celui-ci a été prélèvé chez un cochon en arrêt cardiaque puis préservé dans de la glace. Il a ensuite été mis sur machine de perfusion, initialement en hypothermie (4°C) pendant 2 heures puis à 37°C pendant 12 heures avec une phase de réchauffement intermédiaire (sub normothermie, 21°C). La rapamycine était injectée dans le circuit 2 heures après le début de la phase de normothermie. Neuf expériences ont été réalisées. L'objectif était d'avoir une étude pharmacocinétique de la rapamycine.

[3] = Perfusion circuit without organ: rapamycin concentration in whole blood perfusate; type: in vitro ADME, humain; conditions: whole human blood perfusate at 37°C, no organ; theoretical target 180 ng/mL; 4 experiments
Method: Une machine de perfusion hépatique a été utilisée avec du perfusat constitué de sang total humain maintenu à 37°C. La rapamycine a été injectée directement dans le circuit de perfusion. Des prélèvements étaient réalisés à intervalles réguliers pour doser la molécule. L'expérience a été réalisée 4 fois, l'objectif étant de valider la concentration cible théorique de 180 ng/mL définie à partir des études précédentes d'efficacité et de toxicité.

[4] = in DMSO (Simamora P et al., 2001); cited from earlier work
tissus hépatiques = test: Defatting effect of rapamycin on hepatic tissues, liver slices (Example 2); type: cell-based; conditions: rapamycine 200nM, read-out: diminution du taux de triglycérides intracellulaires par rapport au contrôle
Method: as §1

SMILES: CO[C@H]1C[C@@H]2CC[C@@H](C)[C@@](O)(O2)C(=O)C(=O)N2CCCC[C@H]2C(=O)O[C@H]([C@H](C)C[C@@H]2CC[C@@H](O)[C@H](OC)C2)CC(=O)[C@H](C)/C=C(\C)[C@@H](O)[C@@H](OC)C(=O)[C@H](C)C[C@H](C)/C=C/C=C/C=C/1C [Rapamycine, rapamycine]
- inhibition at 0.2 µM (hépatocytes): 19%
- Solubilité à température ambiante ([1]; DMSO/H2O 40 % volumique, [Rapamycine] 0,4 mg/mL): Non (aspect laiteux avec cristaux
- Solubilité à température ambiante ([1]; DMSO/H2O 40 % volumique, [Rapamycine] 1 mg/mL): Non (aspect laiteux avec cristaux
- Solubilité à température ambiante ([1]; DMSO/H2O 40 % volumique, [Rapamycine] 4 mg/mL): Non (aspect laiteux avec cristaux
- Solubilité à température ambiante ([1]; DMSO/H2O 60 % volumique, [Rapamycine] 0,4 mg/mL): Oui
- Solubilité à température ambiante ([1]; DMSO/H2O 60 % volumique, [Rapamycine] 1 mg/mL): Oui
- Solubilité à température ambiante ([1]; DMSO/H2O 60 % volumique, [Rapamycine] 4 mg/mL): Non (aspect laiteux avec cristaux
- Solubilité à température ambiante ([1]; DMSO/H2O 80 % volumique, [Rapamycine] 0,4 mg/mL): Oui
- Solubilité à température ambiante ([1]; DMSO/H2O 80 % volumique, [Rapamycine] 1 mg/mL): Oui
- Solubilité à température ambiante ([1]; DMSO/H2O 80 % volumique, [Rapamycine] 4 mg/mL): Oui
- Solubilité à température ambiante ([1]; DMSO/H2O 100 % volumique, [Rapamycine] 0,4 mg/mL): Oui
- Solubilité à température ambiante ([1]; DMSO/H2O 100 % volumique, [Rapamycine] 1 mg/mL): Oui
- Solubilité à température ambiante ([1]; DMSO/H2O 100 % volumique, [Rapamycine] 4 mg/mL): Oui
- Solubilité à température ambiante ([1]; second study (Tableau 4), DMSO/H2O 70 % volumique, [Rapamycine] 0,4 mg/mL): Oui
- Solubilité à température ambiante ([1]; second study (Tableau 4), DMSO/H2O 70 % volumique, [Rapamycine] 1 mg/mL): Oui
- Solubilité à température ambiante ([1]; second study (Tableau 4), DMSO/H2O 70 % volumique, [Rapamycine] 4 mg/mL): Oui
- Solubilité à température ambiante ([1]; second study (Tableau 4), DMSO/H2O 85 % volumique, [Rapamycine] 0,4 mg/mL): Oui
- Solubilité à température ambiante ([1]; second study (Tableau 4), DMSO/H2O 85 % volumique, [Rapamycine] 1 mg/mL): Oui
- Solubilité à température ambiante ([1]; second study (Tableau 4), DMSO/H2O 85 % volumique, [Rapamycine] 4 mg/mL): Oui
- Solubilité à température ambiante ([1]; second study (Tableau 4), DMSO/H2O 100 % volumique, [Rapamycine] 0,4 mg/mL): Oui
- Solubilité à température ambiante ([1]; second study (Tableau 4), DMSO/H2O 100 % volumique, [Rapamycine] 1 mg/mL): Oui
- Solubilité à température ambiante ([1]; second study (Tableau 4), DMSO/H2O 100 % volumique, [Rapamycine] 4 mg/mL): Oui
- diminution du taux de triglycérides intra cellulaires (foies humains; foie N°1, 9 heures after injection of rapamycin): 39%
- diminution du taux de triglycérides intra cellulaires (foies humains; foie N°2): 31%
- pharmacocinétique (foies humains; human livers on perfusion machine): identique à celle observée lors de la perfusion des foies de cochon
- time after injection from which rapamycin is found in bile ([2]; bile, increases during perfusion): 1 heure
- Tmax ([2]; whole blood and plasma, 37°C, read-out: pic de concentration (time after injection) (converted)): 5 min
- concentration moyenne de rapamycine [3]: 150 ± 30 ng/mL
- solubilité [4]: > 250 mg/mL
- inhibition at 0.2 µM (tissus hépatiques): 38%
